Source: the NIST ThermoML archive (doi:10.1007/s10765-006-0033-6)
Numbers after ± are expanded uncertainties.

Test: compressibility factor (dimensionless); xn = mol fraction of the nth substance listed
Details: Gas, Other PVT measurement

[N-]=[N+]=O [nitrous oxide] + FCF
compressibility factor (343.77 K, 195.1 kPa, x1 = 0.4666): 0.989 ± 0.0005 | compressibility factor (343.77 K, 207.5 kPa, x1 = 0.2266): 0.9867 ± 0.0005 | compressibility factor (343.77 K, 226.8 kPa, x1 = 0.7567): 0.9899 ± 0.0005 | compressibility factor (343.77 K, 290.7 kPa, x1 = 0.4666): 0.985 ± 0.0005 | compressibility factor (343.77 K, 308.8 kPa, x1 = 0.2266): 0.9814 ± 0.0005 | compressibility factor (343.77 K, 338.1 kPa, x1 = 0.7567): 0.9863 ± 0.0005 | compressibility factor (343.77 K, 432.2 kPa, x1 = 0.4666): 0.9788 ± 0.0005 | compressibility factor (343.77 K, 458 kPa, x1 = 0.2266): 0.973 ± 0.0005 | compressibility factor (343.77 K, 502.9 kPa, x1 = 0.7567): 0.9804 ± 0.0005 | compressibility factor (343.77 K, 640.2 kPa, x1 = 0.4666): 0.9692 ± 0.0005 | compressibility factor (343.77 K, 676.2 kPa, x1 = 0.2266): 0.9601 ± 0.0005 | compressibility factor (343.77 K, 745.4 kPa, x1 = 0.7567): 0.9714 ± 0.0005 | compressibility factor (343.77 K, 943.3 kPa, x1 = 0.4666): 0.9546 ± 0.0005 | compressibility factor (343.77 K, 991.2 kPa, x1 = 0.2266): 0.9407 ± 0.0005 | compressibility factor (343.77 K, 1099.4 kPa, x1 = 0.7567): 0.9577 ± 0.0005 | compressibility factor (343.77 K, 1379.1 kPa, x1 = 0.4666): 0.9328 ± 0.0005 | compressibility factor (343.77 K, 1438.1 kPa, x1 = 0.2266): 0.9123 ± 0.0005 | compressibility factor (343.77 K, 1609.7 kPa, x1 = 0.7567): 0.9372 ± 0.0005 | compressibility factor (343.77 K, 1992.6 kPa, x1 = 0.4666): 0.9008 ± 0.0005 | compressibility factor (343.77 K, 2053.8 kPa, x1 = 0.2266): 0.8708 ± 0.0004 | compressibility factor (343.77 K, 2331.4 kPa, x1 = 0.7567): 0.9073 ± 0.0005 | compressibility factor (343.77 K, 2828.1 kPa, x1 = 0.4666): 0.8546 ± 0.0004 | compressibility factor (343.77 K, 2865.7 kPa, x1 = 0.2266): 0.8122 ± 0.0004 | compressibility factor (343.77 K, 3321.8 kPa, x1 = 0.7567): 0.8641 ± 0.0004 | compressibility factor (343.77 K, 3911.6 kPa, x1 = 0.4666): 0.7901 ± 0.0004 | compressibility factor (343.77 K, 4620.1 kPa, x1 = 0.7567): 0.8033 ± 0.0004 | compressibility factor (343.78 K, 138.3 kPa, x1 = 0.3594): 0.9911 ± 0.0005 | compressibility factor (343.78 K, 187.9 kPa, x1 = 0.5908): 0.9906 ± 0.0005 | compressibility factor (343.78 K, 206.4 kPa, x1 = 0.3594): 0.9884 ± 0.0005 | compressibility factor (343.78 K, 280.1 kPa, x1 = 0.5908): 0.9872 ± 0.0005 | compressibility factor (343.78 K, 307.3 kPa, x1 = 0.3594): 0.9836 ± 0.0005 | compressibility factor (343.78 K, 416.8 kPa, x1 = 0.5908): 0.9817 ± 0.0005 | compressibility factor (343.78 K, 456.2 kPa, x1 = 0.3594): 0.9762 ± 0.0005 | compressibility factor (343.78 K, 618.2 kPa, x1 = 0.5908): 0.9733 ± 0.0005 | compressibility factor (343.78 K, 674.7 kPa, x1 = 0.3594): 0.9649 ± 0.0005 | compressibility factor (343.78 K, 912.7 kPa, x1 = 0.5908): 0.9605 ± 0.0005 | compressibility factor (343.78 K, 991.4 kPa, x1 = 0.3594): 0.9477 ± 0.0005 | compressibility factor (343.78 K, 1338.5 kPa, x1 = 0.5908): 0.9415 ± 0.0005 | compressibility factor (343.78 K, 1443.8 kPa, x1 = 0.3594): 0.9225 ± 0.0005 | compressibility factor (343.78 K, 1942.8 kPa, x1 = 0.5908): 0.9134 ± 0.0005 | compressibility factor (343.78 K, 2073.7 kPa, x1 = 0.3594): 0.8857 ± 0.0004 | compressibility factor (343.78 K, 2776.8 kPa, x1 = 0.5908): 0.8726 ± 0.0004 | compressibility factor (343.78 K, 2917.9 kPa, x1 = 0.3594): 0.833 ± 0.0004 | compressibility factor (343.78 K, 3879.6 kPa, x1 = 0.5908): 0.8149 ± 0.0004 | compressibility factor (364.35 K, 199.4 kPa, x1 = 0.5606): 0.9913 ± 0.0005 | compressibility factor (364.35 K, 297.5 kPa, x1 = 0.5606): 0.9887 ± 0.0005 | compressibility factor (364.35 K, 443 kPa, x1 = 0.5606): 0.9839 ± 0.0005 | compressibility factor (364.35 K, 657.8 kPa, x1 = 0.5606): 0.9766 ± 0.0005 | compressibility factor (364.35 K, 972.8 kPa, x1 = 0.5606): 0.9653 ± 0.0005 | compressibility factor (364.35 K, 1430 kPa, x1 = 0.5606): 0.9485 ± 0.0005 | compressibility factor (364.35 K, 2083.5 kPa, x1 = 0.5606): 0.9237 ± 0.0005 | compressibility factor (364.35 K, 2996.2 kPa, x1 = 0.5606): 0.8879 ± 0.0004 | compressibility factor (364.35 K, 4225.6 kPa, x1 = 0.5606): 0.837 ± 0.0004 | compressibility factor (364.36 K, 114.2 kPa, x1 = 0.2563): 0.9933 ± 0.0005 | compressibility factor (364.36 K, 134.6 kPa, x1 = 0.33): 0.9913 ± 0.0005 | compressibility factor (364.36 K, 170.5 kPa, x1 = 0.2563): 0.9913 ± 0.0005 | compressibility factor (364.36 K, 197 kPa, x1 = 0.4559): 0.9909 ± 0.0005 | compressibility factor (364.36 K, 200.9 kPa, x1 = 0.33): 0.9892 ± 0.0005 | compressibility factor (364.36 K, 250.5 kPa, x1 = 0.7632): 0.9908 ± 0.0005 | compressibility factor (364.36 K, 254.2 kPa, x1 = 0.2563): 0.9878 ± 0.0005 | compressibility factor (364.36 K, 294 kPa, x1 = 0.4559): 0.9885 ± 0.0005 | compressibility factor (364.36 K, 299.7 kPa, x1 = 0.33): 0.9864 ± 0.0005 | compressibility factor (364.36 K, 373.5 kPa, x1 = 0.7632): 0.9875 ± 0.0005 | compressibility factor (364.36 K, 378.2 kPa, x1 = 0.2563): 0.9825 ± 0.0005 | compressibility factor (364.36 K, 437.3 kPa, x1 = 0.4559): 0.9828 ± 0.0005 | compressibility factor (364.36 K, 445.6 kPa, x1 = 0.33): 0.9802 ± 0.0005 | compressibility factor (364.36 K, 556.1 kPa, x1 = 0.7632): 0.9827 ± 0.0005 | compressibility factor (364.36 K, 561.2 kPa, x1 = 0.2563): 0.9743 ± 0.0005 | compressibility factor (364.36 K, 649 kPa, x1 = 0.4559): 0.9748 ± 0.0005 | compressibility factor (364.36 K, 660.6 kPa, x1 = 0.33): 0.9712 ± 0.0005 | compressibility factor (364.36 K, 824.6 kPa, x1 = 0.7632): 0.974 ± 0.0005 | compressibility factor (364.36 K, 828.8 kPa, x1 = 0.2563): 0.9619 ± 0.0005 | compressibility factor (364.36 K, 959 kPa, x1 = 0.4559): 0.9628 ± 0.0005 | compressibility factor (364.36 K, 974.3 kPa, x1 = 0.33): 0.9575 ± 0.0005 | compressibility factor (364.36 K, 1216 kPa, x1 = 0.2563): 0.9432 ± 0.0005 | compressibility factor (364.36 K, 1218.7 kPa, x1 = 0.7632): 0.9621 ± 0.0005 | compressibility factor (364.36 K, 1408 kPa, x1 = 0.4559): 0.9448 ± 0.0005 | compressibility factor (364.36 K, 1425.9 kPa, x1 = 0.33): 0.9367 ± 0.0005 | compressibility factor (364.36 K, 1766.2 kPa, x1 = 0.2563): 0.9157 ± 0.0005 | compressibility factor (364.36 K, 1788.6 kPa, x1 = 0.7632): 0.9438 ± 0.0005 | compressibility factor (364.36 K, 2047.8 kPa, x1 = 0.4559): 0.9185 ± 0.0005 | compressibility factor (364.36 K, 2064.5 kPa, x1 = 0.33): 0.9064 ± 0.0005 | compressibility factor (364.36 K, 2528.1 kPa, x1 = 0.2563): 0.8762 ± 0.0004 | compressibility factor (364.36 K, 2598.5 kPa, x1 = 0.7632): 0.9166 ± 0.0005 | compressibility factor (364.36 K, 2935.9 kPa, x1 = 0.4559): 0.8802 ± 0.0004 | compressibility factor (364.36 K, 2942.6 kPa, x1 = 0.33): 0.8636 ± 0.0004 | compressibility factor (364.36 K, 3725.1 kPa, x1 = 0.7632): 0.8782 ± 0.0004 | compressibility factor (364.36 K, 4122.8 kPa, x1 = 0.4559): 0.8262 ± 0.0004 | compressibility factor (364.36 K, 5229 kPa, x1 = 0.7632): 0.824 ± 0.0004
